Measured values taken from patent publication US20050197350A1, “Novel quinoline, tetrahydroquinazoline, and pyrimidine derivatives and methods of treatment related to the use thereof” (TAISHO PHARMACEUTICAL CO., LTD., priority 2003, published 2005).

System: MCH receptors
Test: MCH receptor activity class (method not given)
Conditions: activity class per percent of control at 10^-7 M or IC50

Q: Which class does the source give for `CN(C)c1nc(N[C@H]2CC[C@@H](NC(=O)[C@H](CCCCNC(=O)c3ccccc3)NC(=O)c3ccccc3)CC2)nc2c1CCCC2` (relative stereo) [compound 980] here?
A: 2 (Class 2: The value of percent of control at 10^−7 M was from 40% to 60% or the value of IC′50 was from 50 nM to 200 nM.)

Q: Which class does the source give for `CC(C(=O)N[C@H]1CC[C@@H](Nc2nc3c(c(N(C)C)n2)CCCC3)CC1)c1ccc(-c2ccccc2)c(F)c1` (relative stereo) [compound 984] here?
A: 2 (Class 2: The value of percent of control at 10^−7 M was from 40% to 60% or the value of IC′50 was from 50 nM to 200 nM.)

Q: With `COc1ccc2c(c1)C(CC(=O)N[C@H]1CC[C@@H](Nc3nc4c(c(N(C)C)n3)CCCC4)CC1)CC2=O` (relative stereo) [compound 988] as the compound, how does the class read?
A: 3 (Class 3 The value of percent of control at 10^−7 M was more than 60% or the value of IC50 was more than 200 nM.)

Q: `CN(C)c1nc(N[C@H]2CC[C@@H](NC(=O)C(CC(=O)c3ccccc3)c3c[nH]c4ccccc34)CC2)nc2c1CCCC2` (relative stereo) [compound 991] was tested. Which class did it give?
A: 2 (Class 2: The value of percent of control at 10^−7 M was from 40% to 60% or the value of IC′50 was from 50 nM to 200 nM.)

Q: Which class does the source give for `CN(C)c1nc(N[C@H]2CC[C@@H](NC(=O)C(CC(=O)c3ccc(Br)cc3)c3c[nH]c4ccccc34)CC2)nc2c1CCCC2` (relative stereo) [compound 992] here?
A: 3 (Class 3 The value of percent of control at 10^−7 M was more than 60% or the value of IC50 was more than 200 nM.)

Q: For `CCc1cccc2c(C(CC(=O)c3ccc(C(C)(C)C)cc3)C(=O)N[C@H]3CC[C@@H](Nc4nc5c(c(N(C)C)n4)CCCC5)CC3)c[nH]c12` (relative stereo) [compound 996], which class is on record?
A: 1 (Class 1: The value of percent of control at 10^−7 M was less than 40% or the value of IC50 was less than 50 nM.)

Q: How did the class turn out when `CN(C)c1nc(N[C@H]2CC[C@@H](NC(=O)C(CC(=O)c3ccc(C(C)(C)C)cc3)c3cn(C)c4ccccc34)CC2)nc2c1CCCC2` (relative stereo) [compound 997] was run?
A: 3 (Class 3 The value of percent of control at 10^−7 M was more than 60% or the value of IC50 was more than 200 nM.)

Q: With `Cc1ccc(C(=O)CC(C(=O)N[C@H]2CC[C@@H](Nc3nc4c(c(N(C)C)n3)CCCC4)CC2)c2cn(C)c3ccccc23)cc1` (relative stereo) [compound 998] as the compound, how does the class read?
A: 2 (Class 2: The value of percent of control at 10^−7 M was from 40% to 60% or the value of IC′50 was from 50 nM to 200 nM.)

Q: With `CCCN(CCC)C(=O)[C@H](CCC(=O)N[C@H]1CC[C@@H](Nc2nc3c(c(N(C)C)n2)CCCC3)CC1)NC(=O)c1ccccc1` (relative stereo) [compound 1006] as the compound, how does the class read?
A: 1 (Class 1: The value of percent of control at 10^−7 M was less than 40% or the value of IC50 was less than 50 nM.)

Q: For `CN(C)c1nc(N[C@H]2CC[C@@H](NC(=O)C(CC(=O)c3ccc(Cl)cc3)SCc3ccc(Cl)cc3)CC2)nc2c1CCCC2` (relative stereo) [compound 1017], which class is on record?
A: 3 (Class 3 The value of percent of control at 10^−7 M was more than 60% or the value of IC50 was more than 200 nM.)

Q: Which class does the source give for `Cc1ccc(C(=O)CC(SCc2ccc(Cl)cc2)C(=O)N[C@H]2CC[C@@H](Nc3nc4c(c(N(C)C)n3)CCCC4)CC2)cc1` (relative stereo) [compound 1018] here?
A: 2 (Class 2: The value of percent of control at 10^−7 M was from 40% to 60% or the value of IC′50 was from 50 nM to 200 nM.)

Q: With `CC1=C(CC(=O)N[C@H]2CC[C@@H](Nc3nc4c(c(N(C)C)n3)CCCC4)CC2)c2cc(F)ccc2/C1=C/c1ccc([S+](C)[O-])cc1` (relative stereo) [compound 1019] as the compound, how does the class read?
A: 1 (Class 1: The value of percent of control at 10^−7 M was less than 40% or the value of IC50 was less than 50 nM.)

Q: With `CC(C(=O)N[C@H]1CC[C@@H](Nc2nc3c(c(N(C)C)n2)CCCC3)CC1)c1ccc(C(=O)c2cccs2)cc1` (relative stereo) [compound 1020] as the compound, how does the class read?
A: 2 (Class 2: The value of percent of control at 10^−7 M was from 40% to 60% or the value of IC′50 was from 50 nM to 200 nM.)

Q: How did the class turn out when `COC(C(=O)N[C@H]1CC[C@@H](Nc2nc3c(c(N(C)C)n2)CCCC3)CC1)c1ccccc1` (relative stereo) [compound 1052] was run?
A: 2 (Class 2: The value of percent of control at 10^−7 M was from 40% to 60% or the value of IC′50 was from 50 nM to 200 nM.)

Same assay, conditions: class by percent of control at 10^-7 M or IC50

Q: How did the class turn out when `CC1=C(CC(=O)N[C@H]2CC[C@@H](Nc3nccc(N(C)C)n3)CC2)c2cc(F)ccc2/C1=C/c1ccc([S+](C)[O-])cc1` (relative stereo) [compound 883, N-(cis-4-{[4-(dimethylamino)pyrimidin-2-yl]amino}cyclohexyl)-2-{(1E)-5-fluoro-2-methyl-1-[4-(methylsulfinyl)benzylidene]-1H-inden-3-yl}acetamide] was run?
A: 2 (Class 2: The value of percent of control at 10^−7 M was from 40% to 60% or the value of IC′50 was from 50 nM to 200 nM.)

Q: With `CC(C(=O)N[C@H]1CC[C@@H](Nc2nccc(N(C)C)n2)CC1)c1ccc(C(=O)c2cccs2)cc1` (relative stereo) [compound 884, N-(cis-4-{[4-(dimethylamino)pyrimidin-2-yl]amino}cyclohexyl)-2-[4-(2-thienylcarbonyl)phenyl]propanamide] as the compound, how does the class read?
A: 2 (Class 2: The value of percent of control at 10^−7 M was from 40% to 60% or the value of IC′50 was from 50 nM to 200 nM.)

Q: Which class does the source give for `COC(C(=O)N[C@H]1CC[C@@H](Nc2nccc(N(C)C)n2)CC1)c1ccccc1` (relative stereo) [compound 916] here?
A: 3 (Class 3 The value of percent of control at 10^−7 M was more than 60% or the value of IC50 was more than 200 nM.)

Q: For `CN(C)c1ccnc(N[C@H]2CC[C@@H](NC(=O)C3CCc4ccccc4C3)CC2)n1` (relative stereo) [compound 917], which class is on record?
A: 3 (Class 3 The value of percent of control at 10^−7 M was more than 60% or the value of IC50 was more than 200 nM.)

Q: With `CN(C)c1ccnc(N[C@H]2CC[C@@H](CNC(=O)C(Cc3ccccc3)c3ccccc3)CC2)n1` (relative stereo) [compound 930, N-[(cis-4-{[4-(dimethylamino)pyrimidin-2-yl]amino}cyclohexyl)methyl]-2,3-diphenylpropanamide] as the compound, how does the class read?
A: 2 (Class 2: The value of percent of control at 10^−7 M was from 40% to 60% or the value of IC′50 was from 50 nM to 200 nM.)

Q: How did the class turn out when `CN(C)c1ccnc(N[C@H]2CC[C@@H](CNC(=O)C3CC(=O)c4ccccc43)CC2)n1` (relative stereo) [compound 935, N-[(cis-4-{[4-(dimethylamino)pyrimidin-2-yl]amino}cyclohexyl)methyl]-3-oxoindane-1-carboxamide] was run?
A: 1 (Class 1: The value of percent of control at 10^−7 M was less than 40% or the value of IC50 was less than 50 nM.)

Q: `CCOc1ccc(C(=O)CC(C(=O)NC[C@H]2CC[C@@H](Nc3nccc(N(C)C)n3)CC2)C2C(=O)N(c3ccccc3)N=C2C)cc1` (relative stereo) [compound 944] was tested. Which class did it give?
A: 3 (Class 3 The value of percent of control at 10^−7 M was more than 60% or the value of IC50 was more than 200 nM.)

Q: For `CN(C)c1nc(N[C@H]2CC[C@@H](NC(=O)C(Cc3ccccc3)c3ccccc3)CC2)nc2c1CCCC2` (relative stereo) [compound 954], which class is on record?
A: 2 (Class 2: The value of percent of control at 10^−7 M was from 40% to 60% or the value of IC′50 was from 50 nM to 200 nM.)

Q: Which class does the source give for `CN(C)c1nc(N[C@H]2CC[C@@H](NC(=O)C3CC(=O)c4ccccc43)CC2)nc2c1CCCC2` (relative stereo) [compound 960] here?
A: 2 (Class 2: The value of percent of control at 10^−7 M was from 40% to 60% or the value of IC′50 was from 50 nM to 200 nM.)
